Like-named read-outs stand apart in the source and are kept apart here.
Tests used:
[1] = In vitro pharmacokinetics: metabolic stability in liver microsome; type: in vitro ADME; conditions: human liver microsome 1 mg/ml, 20 μM compound; for half-life at 20 µM: liver microsomes
Experimental: Metabolic stabilities of the compounds of the Examples were examined by employing microsome samples prepared from the human liver.
Each 20 μM of the compounds were reacted with 1 mg/ml of liver microsome and the half-lives and one-hour stabilities of the compounds were determined.

[2] = In vivo pharmacokinetics using female mice (serum concentration, HPLC); conditions: for Half-life: read-out: Half-life (converted); for clearance: read-out: CL (clearance) (converted); for Vd: read-out: Vd (volume of distribution)
Experimental: Female mice each weighing […] were divided into groups of 5 mice each. The mice were anesthetized with ether, catheterized in their femoral artery and vein, respectively, and administered with 0.5 mg/kg body weight of compounds 234 and 274, and 5 mg/kg body weight of compounds 388, 404 and 415, respectively, via intravenous injection. Alternatively, 15 mg/kg body weight of compound 274 and 10 mg/kg body weight of compound 234 were orally administered to the mice.
At 0, 5, 10, 15 and 30 minutes and 1, 2, 4, 6, 9 and 12 hours after the intravenous injection, or at 0, 10, 20 and 40 minutes and 1, 2, 4, 6, 9 and 12 hours after the oral administration, 0.3 ml blood samples were taken from the mice through femoral artery. The blood samples were kept on an ice bath for 30 minutes and centrifuged at 3,000 rpm for 10 minutes to obtain a supernatant (serum). The supernatant samples were stored at −20° C.
Standard solution: Compounds 234, 274, 388, 404 and 415 were respectively dissolved in methanol to a concentration of 1 mg/ml to obtain stock solutions. The stock solutions were diluted with methanol to obtain standard solutions having concentrations of 40, 20, 10, 2, 1, 0.5, 0.2, 0.05 and 0.02 μg/ml, respectively.
Standard calibration curve: A stand calibration curve was prepared by employing calibration concentrations of 0.002, 0.005, 0.02, 0.05, 0.1, 0.2, 1, 2 and 4 μg/ml.
10 μl each of the standard solutions prepared above was added to 100 μl of normal serum sample and diluted 10 times. 250 μl of acetonitrile was added to the resulting dilution and the mixture was centrifuged for 10 minutes to obtain a supernatant. 300 μl of the supernatant was dried by evaporation under a nitrogen atmosphere and reconstituted by adding 50 μl of methanol. 20 μl of the resulting solution was analyzed by HPLC to prepare a standard calibration curve. HPLC was performed with Shimadzu ODS2 column (4.6×250 mm, 5 μm by employing a mixture of methanol/water (90/10 (v/v)) as the mobile phase at a flow rate of 1.2 ml/min, and measuring the absorbance at 240 nm.
Extraction: 100 μl of the serum sample obtained in (4-2-1) was put into a 1 ml microtube and 10 μl of methanol was added thereto. 250 μl of acetonitrile was added to the microtube and the mixture was centrifuged for 10 minutes to obtain a supernatant. 300 μl of the supernatant was dried by evaporation under a nitrogen atmosphere and reconstituted by adding 50 μl of methanol. 20 μl of the resulting solution was analyzed by the HPLC method as above.
Average concentrations of the compounds in the serum samples were plotted in a semi-log scale against the time lapsed after the administration, and the pharmacokinetic parameters were determined as a non-compartment open model by employing WinNonlin® program (Pharsight Corporation).

[3] = test system: female mice with osteoporosis induced by ovariectomy; experiment: Bone mineral density (BMD) of ovariectomized multiparous mice; type: in vivo; conditions: for decrease of BMD: after 8 weeks
Experimental: The effect of Compound Nos. 274 and 388 of the present invention on BMD of female mice with osteoporosis induced by ovariectomy was examined as follows.
Specifically, after anesthetizing female mice used as a control by abdominal administration with a mixture of 10 mg/kg body weight of Ketamin HCl (Ketara) and 0.15 ml/kg body weight of 2% Xylazine HCl (Roupun), the lumbar dorsum of each mouse was shaved bilaterally and the exposed skin was prepared for aseptic surgery by a 10% povidone-iodine scrub followed by a 70% alcohol wipe. A 1-cm incision was made in the central region of the abdomen, and the ovaries were identified with caution not to damage the main organs such as the liver and diaphragm. The ovaries were ligated with a suture thread, and then severed. Thereafter, each organ was relocated to its original position, and the incision was closed with a suture thread in an interrupted pattern. After ovariectomy, the mice were injected with 0.088 mg/kg body weight of gentamicin to prevent infection.
To investigate the change in BMD of the mice, bone mineral density was measured before the ovariectomy and every two weeks for 8 weeks after the ovariectomy using a bone mineral densitometer, XCT 540 Research SA (Stratec, Germany). Specifically, BMD measurement was made at a voxel size of 0.1 mm×0.1 mm, threshold values of 280 mg/cm^2 for cancellous bone and 500 mg/cm^2 for compact bone, and the analysis sites at the proximal tibias were determined by Scout scans (10 mm/sec). BMD was measured at three slices at the determined sites by CT scans (7 mm/sec), and the measurement was performed twice or more at the same site.
Multiparous mice each weighing […] were subjected to ovariectomy in accordance with the method of (3-1). From the 2nd day to 12th week after the ovariectomy, the mice were injected subcutaneously once a day with 0.5 and 1 mg/kg body weight/day of Compound Nos. 274 and 388, respectively. Alternatively, the mice were administered orally with 2.5 and 7.5 mg/kg body weight/day of Compound Nos. 274 and 388. BMD was measured before the ovariectomy, and during the period of the 2nd week to 11th week after the ovariectomy.

[4] = test system: MG-63 cells; experiment: Cytotoxicity test against osteoblast (MTT); type: cell-based, human
Method in brief: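 MG-63 human osteosarcoma cells exposed to 0.1, 0.3, 1.0 and 3.0 μM compound in DMEM with 10% FBS. Osteoclast progenitors in the same text were run at 2, 4 and 8 μM, 48 h, α-MEM + 20 ng/ml M-CSF, 37 °C; MTT added 3 h before end, A550 as % of control.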

For `CO/C=C(/C(=O)OC)c1ccc(Cl)cc1COc1ccc(OCCOC)cc1` [Compound No. 274, (E)-methyl-2-(2-((4-(2-methoxyethoxy)phenoxy)methyl)-4-chlorophenyl)-3-methoxyacrylate], which One-hour stability [1] is on record?
The One-hour stability was 72%.

What about the half-life at 20 µM [1] of the same molecule?
Its half-life at 20 µM is over 3 h.

And the “AUC (area under the curve of blood concentration versus time)” value ([2]; I.V.)?
Its value is 47200 ± 25800 ng·h/mL.

And the “AUC (area under the curve of blood concentration versus time)” value ([2]; Oral)?
The value was 80600 ± 45400 ng·h/mL.

And the “CL (clearance)” value ([2]; Oral)?
Its value is 7.5 ± 3.4 mL/h.

What about the “Vd (volume of distribution)” value ([2]; Oral) of the same molecule?
Its value is 0.0434 ± 0.0468 L/kg.

And the Half-life ([2]; mouse, serum, 15 mg/kg, Oral)?
Its Half-life is 4.2 ± 3.7 h.

And the bioavailability ([2]; mouse, serum, 15 mg/kg, oral versus I.V., read-out: Bioavailability)?
Its bioavailability is 8.5%.

And the clearance ([2]; mouse, serum, iv, I.V.)?
The clearance was 0.238 mL/min.

And the Half-life ([2]; mouse, serum, iv, I.V.)?
Its Half-life is 3.5 ± 2.3 h.

And the Vd ([2]; mouse, serum, iv, I.V.)?
The Vd was 0.0503 ± 0.0098 L/kg.

What about the “increase of BMD” value ([3]; oral administration (2.5 and 7.5 mg/kg body weight/day), FIGS. 1a and 1b) of the same molecule?
Its value is 0.8%.

What about the “change of BMD” value ([3]; subcutaneous injection once a day (0.5 and 1 mg/kg body weight/day), FIGS. 1a and 1b) of the same molecule?
The value was “no decrease of BMD”.

What about the “relative absorbance relative to that of the control (set as 100), MTT” value (“relative absorbance relative to that” for short) ([4]; 0.11 uM) of the same molecule?
Its value is 113.

What about the “relative absorbance relative to that” value ([4]; 0.33 uM) of the same molecule?
The value was 108.

What about the “relative absorbance relative to that” value ([4]; 1 uM) of the same molecule?
The value was 106.

What about the “relative absorbance relative to that” value ([4]; 3 uM) of the same molecule?
Its value is 94.

With `CO/C=C(/C(=O)OC)c1ccccc1COc1cccc(N2CCCCC2)c1` [Compound No. 388, (E)-methyl-2-[2-((3-(piperidin-1-yl)phenoxy)methyl)phenyl]-3-methoxyacrylate] as the molecule, how does the half-life at 20 µM [1] read?
Its half-life at 20 µM is 0.512 h.

What about the “AUC (area under the curve of blood concentration versus time)” value ([2]; I.V.) of the same molecule?
The value was 112600 ± 13000 ng·h/mL.

And the clearance ([2]; mouse, serum, iv, I.V.)?
The clearance was 0.0483 mL/min.

What about the Half-life ([2]; mouse, serum, iv, I.V.) of the same molecule?
Its Half-life is 7.3 ± 1.2 h.

And the Vd ([2]; mouse, serum, iv, I.V.)?
The Vd was 0.0274 ± 0.002 L/kg.

And the “decrease of BMD” value ([3]; oral administration 2.5 mg/kg)?
Its value is 10.6%.

What about the “decrease of BMD” value ([3]; oral administration 7.5 mg/kg) of the same molecule?
The value was 10.2%.

What about the “decrease of BMD” value ([3]; subcutaneous injection 0.5 mg/kg) of the same molecule?
The value was 5.0%.

And the “decrease of BMD” value ([3]; subcutaneous injection 1 mg/kg)?
Its value is 6.7%.

And the “relative absorbance (MTT) relative to control (set as 100)” value ([4]; 0.33 μM compound)?
Its value is 105.

And the “relative absorbance (MTT) relative to control (set as 100)” value ([4]; 1 μM compound)?
The value was 84.

What about the “relative absorbance (MTT) relative to control (set as 100)” value ([4]; 3 μM compound) of the same molecule?
The value was 81.

— patent US7879835B2 (Korea Research Institute of Chemical Technology, priority 2004, dated 2011)
